The melting point is the temperature of the solid-liquid transition.

The compound `O=C(NCc1ccc(F)cc1)N1CCN2C(=O)OC(C3CCCCC3)(C3CCCCC3)C2C1` (stereo not shown) displayed a melting point of 94 to 95 °C. In the case of `CCCC1(CCC)OC(=O)N2CCN(C(=O)NCc3ccc(F)cc3)CC21` (stereo not shown) it was 74 to 77 °C; in that of `N=C(NCc1ccccc1)N1CCN2C(=O)OC(c3ccccc3)(c3ccccc3)C2C1` (stereo not shown), 68 to 69 °C. In the case of `C[C@H]1CN(C(=O)NCc2ccc(F)cc2)C[C@H]2N1C(=O)OC2(c1ccccc1)c1ccccc1` it was 153 to 156 °C.

As for `O=C(NCc1ccc(F)cc1)N1CCN2C(=O)OC(c3ccc(F)cc3)(c3ccc(F)cc3)C2C1` (stereo not shown), the melting point is 104 to 107 °C. Compound `O=C(NCc1ccc(F)cc1)N1CCN2C(=O)OC(c3ccc(Cl)cc3)(c3ccc(Cl)cc3)C2C1` (stereo not shown) displayed a melting point of 77 to 79 °C. As for `Cc1ccc(C2(c3ccc(C)cc3)OC(=O)N3CCN(C(=O)NCc4ccc(F)cc4)CC32)cc1` (stereo not shown), the melting point was 89 to 90 °C. Consider `CN(C)c1ccc(C2(c3ccc(N(C)C)cc3)OC(=O)N3CCN(C(=O)NCc4ccc(F)cc4)CC32)cc1` (stereo not shown), for which the melting point was in the range of 110 to 113 °C. Compound `Cc1ccccc1C1(c2ccccc2C)OC(=O)N2CCN(C(=O)NCc3ccc(F)cc3)CC21` (stereo not shown) returned a melting point of 217 to 219 °C. Turning to `COc1ccccc1C1(c2ccccc2OC)OC(=O)N2CCN(C(=O)NCc3ccc(F)cc3)CC21` (stereo not shown), the melting point was 172 to 173 °C. The compound `O=C(NCc1ccc(F)cc1)N1CCN2C(=O)OC3(c4ccccc4-c4ccccc43)C2C1` (stereo not shown) had a melting point of 120 to 123 °C.

In turn, `N=C(NCc1ccc(F)cc1)N1CCN2C(=O)OC(c3ccccc3)(c3ccccc3)C2C1` (stereo not shown) [Compound 16, N-(4-Fluorobenzyl)-3-oxo-1,1-diphenyltetrahydro-1H-oxazolo[3,4-a]pyrazine-7(3H)-carboximidamide] yielded a melting point of 82 to 85 °C.

As to `O=C(NCc1ccc(F)cc1)N1C[C@H](c2ccccc2)N2C(=O)OC(c3ccccc3)(c3ccccc3)[C@H]2C1` [Compound 21, (5S,8aR)-N-(4-Fluorobenzyl)-3-oxo-1,1,5-triphenyltetrahydro-1H-oxazolo[3,4-a]pyrazine-7(3H)-carboxamide], the melting point fell in the range of 105 to 107 °C.

(Values after article PMC8041306 (Journal of Medicinal Chemistry, 2021).)
